Values of other authors in publication PMC2810227, “3-O-Methylfunicone, a Selective Inhibitor of Mammalian Y-Family DNA Polymerases from an Australian Sea Salt Fungal Strain” (Marine Drugs, 2009).

Tests used:
[1] = system: family B pols, such as pols α, δ and ɛ; parameters: method as in PMID 467434; conditions: cited from earlier work
pol α = system: pol α; parameters: method as in PMID 467434; conditions: not competing with the other three deoxynucleoside triphosphates; cited from earlier work

## C[C@@]1(CO)[C@H](O)CC[C@@]2(C)[C@H]1CC[C@H]1C[C@@H]3C[C@@]12CC[C@]3(O)CO [aphidicolin]
[1]; activated DNA
  mode of inhibition with the DNA template-primer: uncompetitive
[1]
  mode of inhibition with respect to the dNTP substrate: competitive
Pol α
  mode of inhibition of pol α with respect to individual deoxynucleoside triphosphates: competing with dCTP
